Measured values: patent US12036281B2 (ONEHEALTHCOMPANY, INC., priority 2019, dated 2024)

Tests used:
[1] = Number and type of adverse effects reported in treated canines; assay type: in vivo; details: canine subjects with cancer; for subjects with clinically reported outcomes that experienced adverse effects: diarrhea, vomiting, inappetence, lethargy, skin lesions, liver enzymes, cardiac toxicity, hemorrhagic gastroenteritis monitored, cohorts 192, 94, 162, 275, 89, 83, 9 subjects
Procedure: Canine subjects with cancer were treated with pharmaceutical compositions comprising Rapamycin and were monitored for adverse effects including: diarrhea, vomiting inappetence, lethargy, skin lesions, progressive liver enzyme evaluations, increased cardiac toxicity and hemorrhagic gastroenteritis.
Canine subjects with cancer were treated with pharmaceutical compositions comprising Dasatinib and were monitored for adverse effects including: diarrhea, vomiting inappetence, lethargy, skin lesions, progressive liver enzyme evaluations, increased cardiac toxicity and hemorrhagic gastroenteritis.
Canine subjects with cancer were treated with pharmaceutical compositions comprising Vorinostat and were monitored for adverse effects including: diarrhea, vomiting inappetence, lethargy, skin lesions, progressive liver enzyme evaluations, increased cardiac toxicity and hemorrhagic gastroenteritis.
Canine subjects with cancer were treated with pharmaceutical compositions comprising Crizotinib and were monitored for adverse effects including: diarrhea, vomiting inappetence, lethargy, skin lesions, progressive liver enzyme evaluations, increased cardiac toxicity and hemorrhagic gastroenteritis.
Canine subjects with cancer were treated with pharmaceutical compositions comprising Sorafenib and were monitored for adverse effects including: diarrhea, vomiting inappetence, lethargy, skin lesions, progressive liver enzyme evaluations, increased cardiac toxicity and hemorrhagic gastroenteritis.

cancer = assay: Treatment of canine cancers with targeted drug, disease progression and overall survival compared to historical controls; assay type: in vivo; details: alone or in combination with other anti-cancer agents
Procedure: (§1) Canine subjects with cancer were treated with Rapamycin alone or in combination with other anti-cancer agents (Tables 3 and 12-26). The subjects were administered Rapamycin orally with a starting dose of 0.1 mg/kg/day and were monitored for disease progression compared to historical controls.
Canine subjects with cancer were treated with Dasatinib alone or in combination with other anti-cancer agents (Tables 4 and 12-26). The subjects were administered Dasatinib orally with a starting dose of 0.5-0.7 mg/kg/day and were monitored for disease progression compared to historical controls.
as §1, with “Vorinostat” for “Rapamycin”, “7” for “3”, “30-60 mg/kg/every other day” for “0.1 mg/kg/day”
as §1, with “Crizotinib” for “Rapamycin”, “(Table 9” for “(Tables 3”, “1 mg/kg/day-2” for “0.1”
as §1, with “Sorafenib” for “Rapamycin”, “10” for “3”, “1 mg/kg/day-3” for “0.1”, “mg/kg/day or 1 mg/kg/day-3 mg/kg/week” for “mg/kg/day”

| Compound | subjects with clinically reported outcomes that experienced adverse effects [1] | other results |
| --- | --- | --- |
| CO[C@H]1C[C@@H]2CC[C@@H](C)[C@@](O)(O2)C(=O)C(=O)N2CCCC[C@H]2C(=O)O[C@H]([C@H](C)C[C@@H]2CC[C@@H](O)[C@H](OC)C2)CC(=O)[C@H](C)/C=C(\C)[C@@H](O)[C@@H](OC)C(=O)[C@H](C)C[C@H](C)/C=C/C=C/C=C/1C [Rapamycin] | 21% | – |
| Cc1nc(Nc2ncc(C(=O)Nc3c(C)cccc3Cl)s2)cc(N2CCN(CCO)CC2)n1 [Dasatinib] | 31% | – |
| CNC(=O)c1cc(Oc2ccc(NC(=O)Nc3ccc(Cl)c(C(F)(F)F)c3)cc2)ccn1 [Sorafenib] | – | overall survival compared to control subjects (cancer; Sorafenib orally, starting dose 1 mg/kg/day-3 mg/kg/day or 1 mg/kg/day-3 mg/kg/week): significant improvement; subjects with clinically reported outcomes that experience adverse effects ([1]; result in words): A minority of subjects |
| O=C(CCCCCCC(=O)Nc1ccccc1)NO [Vorinostat] | 34% | overall survival compared to control subjects (cancer; Vorinostat orally, starting dose 30-60 mg/kg/every other day): significant improvement |
| Cc1ccc(NC(=O)c2ccc(CN3CCN(C)CC3)cc2)cc1Nc1nccc(-c2cccnc2)n1 [Imatinib] | – | overall survival compared to control subjects (cancer; Imatinib orally, starting dose 10 mg/kg/day): significant improvement |
| CS(=O)(=O)CCNCc1ccc(-c2ccc3ncnc(Nc4ccc(OCc5cccc(F)c5)c(Cl)c4)c3c2)o1 [Lapatinib] | 22% | overall survival compared to control subjects (cancer; Lapatinib orally, starting dose 5-10 mg/kg/day): significant improvement |
| C[C@@H](Oc1cc(-c2cnn(C3CCNCC3)c2)cnc1N)c1c(Cl)ccc(F)c1Cl [Crizotinib] | 43% | overall survival compared to control subjects (cancer; Crizotinib orally, starting dose 1 mg/kg/day-2 mg/kg/day): significant improvement |
| CC(=O)Nc1cccc(-n2c(=O)n(C3CC3)c(=O)c3c(Nc4ccc(I)cc4F)n(C)c(=O)c(C)c32)c1 [Trametinib] | 24% | – |
